Measured values as given in patent US20110306580A1 (DONG WHA PHARMACEUTICAL CO ., LTD., priority 2009, published 2011).

What was measured:
[1] = tested on: ROS17/2.8 cells; test: Cell growth of ROS17/2.8 cells by BrdU uptake (Cell Proliferation Biotrak ELISA); format: cell-based, rat; details: for Product of relative indices of single agent addition group: Bürgi's method
Procedure: ROS17/2.8 cells were inoculated to a 96-well plate at a density of 2×10^4 cells/well. An αMEM medium to which 10% fetal calf serum had been added (referred to as the 10% FCS-αMEM, hereinafter) was used as a medium. After culture of the cells overnight, the medium was removed from each well, and an αMEM medium to which 0.5% fetal calf serum had been added (referred to as the 0.5% FCS-αMEM, hereinafter) was added. After culture of the cells for about six hours, the medium was removed from each well, and a 10% FCS-αMEM comprising DMSO and ethanol (referred to as Solution 1, hereinafter), a Compound 1 solution and ethanol (referred to as Solution 2, hereinafter), a 1α,25-dihydroxyvitamin D3 solution and DMSO (referred to as Solution 3, hereinafter) or the Compound 1 solution and the 1α,25-dihydroxyvitamin D3 solution (referred to as Solution 4, hereinafter) was added. The 10% FCS-αMEM comprising Solution 1 was prepared by diluting DMSO and ethanol by 1000 fold with the 10% FCS-αMEM. The 10% FCS-αMEM comprising Solution 2 was prepared by diluting a 10^−5M Compound 1 solution and ethanol by 1000 fold with the 10% FCS-αMEM. The 10% FCS-αMEM comprising Solution 3 was prepared by diluting a 10^−4M 1α,25-dihydroxyvitamin D3 solution and DMSO by 1000 fold with the 10% FCS-αMEM. The 10% FCS-αMEM comprising Solution 4 was prepared by diluting the 10^−5M Compound 1 solution and the 10^−4M 1α,25-dihydroxyvitamin D3 solution by 1000 fold with the 10% FCS-αMEM. After culture of the cells for about 24 hours, the effect of Compound 1 and 1α,25-dihydroxyvitamin D3 on the cell growth of the ROS17/2.8 cells was evaluated using Amersham Cell Proliferation Biotrak ELISA system, version 2 (manufactured by GE healthcare bioscience K.K., Code No. RPN250). Namely, growing cells were made take 5-bromo-2′-deoxyuridine (BrdU) into the cells, and the cells were detected by ELISA using peroxidase-labeled anti-BrdU antibodies. The amount of BrdU taken into the cells was determined by measuring absorbance (450 nm) of the solution by a microplate reader.
The BrdU uptake amount in each solution addition group was obtained in terms of a percentage to the average value of the BrdU uptake amount in four wells in a Solution 1 addition group. The graph was made using the average value±standard error of the four wells of each solution addition group.
In the Bürgi's method, the value of a standard group is […] the values of each treated group to obtain a relative index. […] If they are the same, it is determined that there is an added action. In contrast, if the value of the combination treatment group is poor, it is determined that there is an antagonistic action.
ROS17/2.8 cells were inoculated to a 96-well plate at a density of 5×10^3 cells/well. The 10% FCS-αMEM was used as a medium. After culture of the cells overnight, the medium was removed from each well, and the 0.5% FCS-αMEM was added. After culture of the cells for about six hours, the medium was removed from each well, and the 10% FCS-αMEM comprising DMSO and ethanol (referred to as Solution 1, hereinafter), a Compound 11 solution and ethanol (referred to as Solution 5, hereinafter), the 1α,25-dihydroxyvitamin D3 solution and DMSO (referred to as Solution 3, hereinafter) or the Compound 11 solution and the 1α,25-dihydroxyvitamin D3 solution (referred to as Solution 6, hereinafter) was added. The 10% FCS-αMEM comprising Solution 1 was prepared by diluting DMSO and ethanol by 1000 fold with the 10% FCS-αMEM. The 10% FCS-αMEM comprising Solution 5 was prepared by diluting a 10^−5M Compound 11 solution and ethanol by 1000 fold with the 10% FCS-αMEM. The 10% FCS-αMEM comprising Solution 3 was prepared by diluting a 10^−4M 1α,25-dihydroxyvitamin D3 solution and DMSO by 1000 fold with the 10% FCS-αMEM.

[2] = tested on: ROS17/2.8 cells; test: Cell growth of ROS17/2.8 cells by the MTT method (formed formazan); format: cell-based, rat; details: for activity at 0.02 µM: Rattus norvegicus, 2×10^−5M Test Compound solution diluted 1000 fold, read-out: Amount of formed formazan, Solution 8 (Test Compound alone); for activity at 0.02 µM / Amount of formed formazan, Solution 10 (a group of a drug combination): percentage to Solution 7 addition group, about 48 hours, average ± standard deviation of four wells; for Relative index of Solution 10 (a group of a drug combination) / Amount of formed formazan, Solution 10 (a group of a drug combination): Test Compound in combination with 1α,25-dihydroxyvitamin D3; for Relative index of Solution 10 (a group of a drug combination) / Relative index of Solution 8 (Test Compound alone): amount of formed formazan, Solution 7 = 1.00
Procedure: 100 μL of a 10% FCS-αMEM comprising either DMSO and ethanol (referred to as Solution 7, hereinafter), a Test Compound solution and ethanol (referred to as Solution 8, hereinafter), a 1α,25-dihydroxyvitamin D3 solution and DMSO (referred to as Solution 9, hereinafter) or a Test Compound solution and the 1α,25-dihydroxyvitamin D3 solution (referred to as Solution 10, hereinafter) was dispensed. The ROS17/2.8 cells were inoculated to a medium at a density of 5×10^3 cells/100 μL/well. After culture of the cells for about 48 hours, the effect of Test Compound and 1α,25-dihydroxyvitamin D3 on the cell growth of the ROS17/2.8 cells was evaluated using the MTT method. Namely, after culture of the cells for about 44 hours, an MTT solution (3-[4,5-dimethylthiazol-2-yl]-2,5-diphenyltetrazolium bromide 2 mg/mL) was added in an amount of 25 μL/well, and the cells were further cultured for four hours. After the medium was removed, DMSO was added in an amount of 100 μL/well so as to dissolve the formed formazan. The amount of the formed formazan was determined by measuring the absorbance (at 560 nm) of the solution by a microplate reader.
The 10% FCS-αMEM comprising Solution 7 was prepared by diluting DMSO by 1000 fold with the 10% FCS-αMEM, and diluting ethanol by 10000 fold with the 10% FCS-αMEM. The 10% FCS-αMEM comprising Solution 8 was prepared by diluting a 2×10^−5M Test Compound solution by 1000 fold with the 10% FCS-αMEM, and diluting ethanol by 10000 fold with the 10% FCS-αMEM. The 10% FCS-αMEM comprising Solution 9 was prepared by diluting 2×10^−3M 1α,25-dihydroxyvitamin D3 solution by 10000 fold with the 10% FCS-αMEM, and diluting DMSO by 1000 fold with the 10% FCS-αMEM. The 10% FCS-αMEM comprising Solution 10 was prepared by diluting a 2×10^−5M Test Compound solution by 1000 fold with the 10% FCS-αMEM, and diluting 2×10^−3M 1α,25-dihydroxyvitamin D3 solution by 10000 fold with the 10% FCS-αMEM.
The amount of the formed formazan in each solution addition group was obtained in terms of a percentage to the average value of the amounts of formed formazan in four wells in a Solution 7 addition group. All the determined values were shown in terms of the average value±standard deviation of the four wells of each solution addition group.

Row | Compound | Relative index of BrdU uptake amount, Solution 2 (Compound 1 alone) ([1]; Example 1, 2×10^4 cells/well, 10^−5M Compound 1 solution diluted 1000 fold, about 24 hours, Solution 1 = 1.000) | Cell growth of ROS17/2.8 cells compared with Solution 1 (FIG. 1) ([1]; Example 1, BrdU uptake, Dunnett multiple comparison test) | Product of relative indices of single agent addition group ([1]; Example 1, Compound 1 alone × 1α,25-dihydroxyvitamin D3 alone) | activity at 0.02 µM [2] | Relative index of Solution 10 (a group of a drug combination) [2] | Amount of formed formazan, Solution 10 (a group of a drug combination) [2] | Relative index of Solution 8 (Test Compound alone) [2] | Relative index of BrdU uptake amount, Solution 5 (Compound 11 alone) ([1]; Example 2, 5×10^3 cells/well, 10^−5M Compound 11 solution diluted 1000 fold, about 24 hours, Solution 1 = 1.000) | Cell growth of ROS17/2.8 cells compared with Solution 1 (FIG. 2) ([1]; Example 2, BrdU uptake, Dunnett multiple comparison test) | Product of relative indices of single agent addition group ([1]; Example 2, Compound 11 alone × 1α,25-dihydroxyvitamin D3 alone)
1 | Cc1nc(-c2ccc(OCCCCCOc3ccc(/C(N)=N/O)cc3)cc2)c(C(C)C)s1 [Compound 1, N-hydroxy-4-{5-[4-(5-isopropyl-2-methyl-1,3-thiazol-4-yl)phenoxy]pentoxy}benzamidine] | 1.011 | not significantly different | 1.233 | – | – | – | – | – | – | –
2 | CCCN(CCC)c1nc(-c2ccc(OCCCCCOc3ccc(/C(N)=N/O)cc3)cc2)c(CC)s1 [Compound 11, N-hydroxy-4-{5-[4-(2-dipropylamino-5-ethyl-1,3-thiazol-4-yl)phenoxy]pentoxy}benzamidine] | – | – | – | 103 ± 2.4% | 1.15 | 115 ± 4.4 # % | 1.03 | 1.023 | not significantly different | 1.223
3 | Cc1nc(-c2ccc(OCCCCC(=O)Nc3ccc(/C(N)=N/O)cc3)cc2)c(C(C)C)s1 [Compound 18, N-hydroxy-4-{5-[4-(5-isopropyl-2-methyl-1,3-thiazol-4-yl)phenoxy]pentanoylamino}benzamidine] | – | – | – | 106 ± 5% | 1.15 | 115 ± 3.0 ## % | 1.06 | – | – | –
4 | Cc1nc(-c2ccc(OCCCCCOc3ccc(/C(N)=N/O)cc3)cc2)c(CCCl)s1 [Compound 3, N-hydroxy-4-{5-[4-(5-(2-chloroethyl)-2-methyl-1,3-thiazol-4-yl)phenoxy]pentoxy}benzamidine] | – | – | – | 105 ± 3.1% | 1.12 | 112 ± 2.7 # % | 1.05 | – | – | –
5 | CCCN(CCC)c1nc(-c2ccc(OCCCCCOc3ccc(/C(N)=N/O)cc3)cc2)c(CC2CCCC2)s1 [Compound 14, N-hydroxy-4-{5-[4-(5-cyclopentylmethyl-2-dipropylamino-1,3-thiazol-4-yl)phenoxy]pentoxy}benzamidine] | – | – | – | 103 ± 2.5% | 1.13 | 113 ± 1.3 # % | 1.03 | – | – | –
6 | CN(C)CCc1sc(C2CCCCC2)nc1-c1ccc(OCCCCCOc2ccc(/C(N)=N/O)cc2)cc1 [Compound 28, N-hydroxy-4-{5-[4-(2-cyclohexyl-5-(2-(dimethylamino)ethyl)-1,3-thiazol-4-yl)phenoxy]pentoxy}benzamidine] | – | – | – | 99 ± 3.5% | 1.11 | 111 ± 2.0 # % | 0.99 | – | – | –
7 | CCc1sc(C2CCCCC2)nc1-c1ccc(OCCCCOc2ccc(/C(N)=N/O)cc2)cc1 [Compound 21, N-hydroxy-4-{4-[4-(2-cyclohexyl-5-ethyl-1,3-thiazol-4-yl)phenoxy]butoxy}benzamidine] | – | – | – | 105 ± 2.5% | 1.11 | 111 ± 1.7 # % | 1.05 | – | – | –
8 | C=Cc1sc(C)nc1-c1ccc(OCCCCCOc2ccc(/C(N)=N/O)cc2)cc1 [Compound 5, N-hydroxy-4-{5-[4-(5-vinyl-2-methyl-1,3-thiazol-4-yl)phenoxy]pentoxy}benzamidine] | – | – | – | 100 ± 3.7% | 1.10 | 110 ± 2.4 # % | 1.00 | – | – | –
9 | Cc1nc(-c2ccc(OCc3cccc(COc4ccc(/C(N)=N/O)cc4)c3)cc2)c(C(C)C)s1 [Compound 22, N-hydroxy-4-{3-[4-(5-isopropyl-2-methyl-1,3-thiazol-4-yl)phenoxymethyl]benzyloxy}benzamidine] | – | – | – | 110 ± 4.1% | 1.22 | 122 ± 2.1 ## % | 1.10 | – | – | –
10 | CCCCc1sc(N(C)CCN2CCOCC2)nc1-c1ccc(OCCCCCOc2ccc(/C(N)=N/O)cc2)cc1 [Compound 13, N-hydroxy-4-{5-[4-(5-butyl-2-(methyl(2-(4-morpholino)ethyl)amino)-1,3-thiazol-4-yl)phenoxy]pentoxy}benzamidine] | – | – | – | 103 ± 5.2% | 1.13 | 113 ± 2.1 # % | 1.03 | – | – | –
